# How the values were obtained:
# [1] = target: T1, Carnitine O-palmitoyltransferase 1, liver isoform (Homo sapiens, UniProt P50416); assay: (§1) SUPPLEMENTARY: Inhibition of Carnitine palmitoyltransferase 1, liver isoform
# T1 sequence (P50416 whole entry): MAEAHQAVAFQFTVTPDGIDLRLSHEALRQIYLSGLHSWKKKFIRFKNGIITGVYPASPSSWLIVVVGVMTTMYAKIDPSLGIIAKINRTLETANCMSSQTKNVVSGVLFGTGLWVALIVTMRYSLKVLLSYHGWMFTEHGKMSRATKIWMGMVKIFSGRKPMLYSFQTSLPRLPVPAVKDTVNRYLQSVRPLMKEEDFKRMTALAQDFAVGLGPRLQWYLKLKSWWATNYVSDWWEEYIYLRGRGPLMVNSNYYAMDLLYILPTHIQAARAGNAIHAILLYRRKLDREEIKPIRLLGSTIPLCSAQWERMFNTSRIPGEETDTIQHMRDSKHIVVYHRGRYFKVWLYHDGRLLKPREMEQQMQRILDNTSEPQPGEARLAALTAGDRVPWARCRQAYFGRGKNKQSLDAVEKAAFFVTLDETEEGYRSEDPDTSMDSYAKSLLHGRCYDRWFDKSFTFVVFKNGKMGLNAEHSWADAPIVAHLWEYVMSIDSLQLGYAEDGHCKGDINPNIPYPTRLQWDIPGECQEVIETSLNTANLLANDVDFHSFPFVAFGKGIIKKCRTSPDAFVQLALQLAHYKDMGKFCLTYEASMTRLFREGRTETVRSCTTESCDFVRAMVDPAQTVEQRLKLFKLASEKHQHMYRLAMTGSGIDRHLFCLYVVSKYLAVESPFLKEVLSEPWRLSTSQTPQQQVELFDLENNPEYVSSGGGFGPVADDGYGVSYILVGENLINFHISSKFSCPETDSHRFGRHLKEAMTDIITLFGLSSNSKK
# [2] = target: T2, Carnitine O-palmitoyltransferase 1, liver isoform (Rattus norvegicus, UniProt P32198); assay: as §1
# T2 sequence (P32198 whole entry): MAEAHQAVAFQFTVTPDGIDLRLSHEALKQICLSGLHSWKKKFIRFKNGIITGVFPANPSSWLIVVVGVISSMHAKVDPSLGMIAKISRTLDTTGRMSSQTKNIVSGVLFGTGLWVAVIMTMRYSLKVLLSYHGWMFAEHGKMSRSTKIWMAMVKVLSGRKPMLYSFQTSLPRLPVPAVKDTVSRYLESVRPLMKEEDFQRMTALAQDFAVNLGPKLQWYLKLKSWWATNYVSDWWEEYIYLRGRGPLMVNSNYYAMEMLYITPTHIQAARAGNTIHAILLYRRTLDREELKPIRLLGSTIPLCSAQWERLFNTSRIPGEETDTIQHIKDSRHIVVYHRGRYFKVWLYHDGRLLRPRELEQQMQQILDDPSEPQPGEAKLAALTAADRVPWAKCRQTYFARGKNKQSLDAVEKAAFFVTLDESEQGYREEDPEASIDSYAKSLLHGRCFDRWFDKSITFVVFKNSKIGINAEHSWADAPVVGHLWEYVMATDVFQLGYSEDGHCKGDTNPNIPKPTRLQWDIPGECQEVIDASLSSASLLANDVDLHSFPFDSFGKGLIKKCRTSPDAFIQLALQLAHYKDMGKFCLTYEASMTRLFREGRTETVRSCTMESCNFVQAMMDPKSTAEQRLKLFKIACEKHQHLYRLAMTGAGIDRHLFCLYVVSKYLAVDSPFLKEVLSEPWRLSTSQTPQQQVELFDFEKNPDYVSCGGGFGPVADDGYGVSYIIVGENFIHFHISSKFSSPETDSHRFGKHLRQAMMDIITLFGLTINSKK
# [3] = target: T3, Carnitine O-palmitoyltransferase 2, mitochondrial (Rattus norvegicus, UniProt P18886); assay: (§2) SUPPLEMENTARY: Inhibition of Carnitine palmitoyltransferase 2
# T3 sequence (P18886 whole entry): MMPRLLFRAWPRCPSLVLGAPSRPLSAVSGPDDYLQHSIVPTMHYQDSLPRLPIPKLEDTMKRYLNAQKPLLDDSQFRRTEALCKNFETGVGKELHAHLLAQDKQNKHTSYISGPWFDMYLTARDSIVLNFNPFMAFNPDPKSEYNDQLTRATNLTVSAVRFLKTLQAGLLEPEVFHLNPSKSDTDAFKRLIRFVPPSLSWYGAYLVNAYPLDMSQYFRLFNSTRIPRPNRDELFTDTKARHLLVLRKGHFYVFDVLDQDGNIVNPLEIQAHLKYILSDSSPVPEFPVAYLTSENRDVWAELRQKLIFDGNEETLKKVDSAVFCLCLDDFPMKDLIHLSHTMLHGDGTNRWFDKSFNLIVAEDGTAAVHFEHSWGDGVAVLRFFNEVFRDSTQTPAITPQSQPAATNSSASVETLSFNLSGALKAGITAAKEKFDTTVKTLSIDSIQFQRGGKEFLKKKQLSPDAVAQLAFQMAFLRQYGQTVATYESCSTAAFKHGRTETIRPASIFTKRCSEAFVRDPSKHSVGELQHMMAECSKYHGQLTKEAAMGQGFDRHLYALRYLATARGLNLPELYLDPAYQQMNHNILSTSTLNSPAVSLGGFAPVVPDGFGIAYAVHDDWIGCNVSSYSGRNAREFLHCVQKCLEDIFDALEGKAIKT
# [4] = target: T4, Carnitine O-palmitoyltransferase 2, mitochondrial (Homo sapiens, UniProt P23786); assay: as §2
# T4 sequence (P23786 whole entry): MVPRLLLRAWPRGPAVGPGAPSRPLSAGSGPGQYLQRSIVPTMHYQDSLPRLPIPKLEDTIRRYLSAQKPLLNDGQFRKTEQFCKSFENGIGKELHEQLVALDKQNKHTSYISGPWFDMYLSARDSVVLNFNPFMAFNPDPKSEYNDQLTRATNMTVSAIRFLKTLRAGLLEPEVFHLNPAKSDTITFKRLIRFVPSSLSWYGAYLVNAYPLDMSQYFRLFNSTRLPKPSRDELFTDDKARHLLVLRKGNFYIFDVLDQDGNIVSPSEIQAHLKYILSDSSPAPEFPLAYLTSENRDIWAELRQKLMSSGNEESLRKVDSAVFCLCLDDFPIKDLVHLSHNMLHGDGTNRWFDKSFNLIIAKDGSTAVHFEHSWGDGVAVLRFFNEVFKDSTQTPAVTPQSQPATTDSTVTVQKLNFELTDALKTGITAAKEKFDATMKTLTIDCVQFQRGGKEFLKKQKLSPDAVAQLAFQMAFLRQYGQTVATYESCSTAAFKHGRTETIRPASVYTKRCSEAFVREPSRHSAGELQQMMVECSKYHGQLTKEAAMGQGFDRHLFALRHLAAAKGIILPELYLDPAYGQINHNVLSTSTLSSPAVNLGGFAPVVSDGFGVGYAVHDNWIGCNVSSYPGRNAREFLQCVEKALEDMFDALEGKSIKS
# [5] = target: T5, Carnitine O-palmitoyltransferase 1, muscle isoform (Homo sapiens, UniProt Q92523); assay: SUPPLEMENTARY: Inhibition of Carnitine palmitoyltransferase 1, muscle isoform; design: species or system Muscle tissue
# T5 sequence (Q92523 whole entry): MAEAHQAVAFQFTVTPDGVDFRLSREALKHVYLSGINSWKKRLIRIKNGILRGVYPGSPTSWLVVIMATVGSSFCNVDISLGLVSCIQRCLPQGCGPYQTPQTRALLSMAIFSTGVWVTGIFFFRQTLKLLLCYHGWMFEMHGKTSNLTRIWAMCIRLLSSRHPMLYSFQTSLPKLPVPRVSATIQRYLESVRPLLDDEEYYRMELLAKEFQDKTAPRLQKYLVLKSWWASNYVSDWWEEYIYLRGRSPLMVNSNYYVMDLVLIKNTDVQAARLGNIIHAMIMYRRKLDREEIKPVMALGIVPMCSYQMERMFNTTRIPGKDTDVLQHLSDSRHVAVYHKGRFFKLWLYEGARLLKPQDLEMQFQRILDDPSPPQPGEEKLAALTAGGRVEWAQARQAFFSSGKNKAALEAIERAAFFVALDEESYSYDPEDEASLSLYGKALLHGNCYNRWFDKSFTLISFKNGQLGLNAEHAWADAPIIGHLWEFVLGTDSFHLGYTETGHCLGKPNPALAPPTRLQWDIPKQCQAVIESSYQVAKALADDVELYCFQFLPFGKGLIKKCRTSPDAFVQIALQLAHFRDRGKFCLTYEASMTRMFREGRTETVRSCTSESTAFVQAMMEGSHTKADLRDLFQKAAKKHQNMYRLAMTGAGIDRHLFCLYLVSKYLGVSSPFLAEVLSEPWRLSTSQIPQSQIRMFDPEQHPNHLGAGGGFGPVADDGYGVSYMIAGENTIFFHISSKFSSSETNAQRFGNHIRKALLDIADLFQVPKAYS
SMILES,IC50 [1] [nM],IC50 [2] [nM],IC50 [3] [nM],IC50 [4] [nM],IC50 [5] [nM]
O=C(COc1ccccc1)N1CCCC[C@@H]1c1nnn(-c2ccccc2)n1,156,76.9,> 100000,> 100000,> 100000
O=C([C@H]1CCCCN1C(=O)COc1ccccc1)N1Cc2ccc(OC3CCOCC3)cc2C1,103,72.7,643,193,> 100000
O=C(COc1ccccc1)N1CCCC[C@@H]1c1nc(-c2ccc(Cl)cc2)cs1,1380,1230,> 100000,> 100000,> 100000
COc1ccc(Cl)cc1S(=O)(=O)N(c1cc(C(=O)Nc2ccc(CC(=O)O)cc2)cc2c1OCO2)C(C)C,890,1090,> 100000,52200,598
O=C([C@H]1CCCCN1C(=O)COc1ccccc1)N1CCc2c(Cl)cccc2C1,224,367,1610,634,> 100000
Cc1ccnc(N2CCN(C(=O)[C@H]3CCCCN3C(=O)COc3ccccc3)CC2)c1,124,196,1270,586,31700
COc1ccc(C)cc1S(=O)(=O)N1CCOc2ccc(C(=O)Nc3ccc(C(=O)O)c(F)c3)cc21,224,102,15400,2580,2150
O=C(COc1ccccc1)N1CCNCC1c1nc(-c2ccc(N3CCOCC3)cc2)no1 (centres undefined),88.7,489,> 100000,> 100000,> 100000
O=C(O)c1ccccc1CCc1ccc(NS(=O)(=O)c2ccc(Cl)cc2)cc1,> 10000,> 10000,28000,> 100000,> 100000
O=C1Nc2ccc(-c3n[nH]c([C@H]4CCCCN4C(=O)COc4ccccc4)n3)cc2CO1,223,840,50400,26400,70700
O=C(NCc1ccc(-c2nnn[nH]2)cc1)c1nn(Cc2ccc(OC(F)F)cc2)c2ccc(F)cc12,221,394,> 100000,> 100000,8510
COc1ccc(Cl)cc1S(=O)(=O)N1CCSc2ccc(C(=O)Nc3ccc(C(=O)O)c(Cl)c3)cc21,87.4,124,10600,4360,1520
COC(=O)c1cccc(-c2nc([C@H]3CCCCN3C(=O)COc3ccccc3)sc2C)c1,305,632,> 100000,59800,> 100000
O=C(COc1ccccc1)N1CCCC[C@@H]1c1nnn(-c2ccc(F)cc2)n1,197,256,> 100000,> 100000,> 100000
CCN(c1cc(C(=O)Nc2ccn(CC(=O)O)n2)cc2c1OCO2)S(=O)(=O)c1cc(Cl)ccc1OC,339,686,> 100000,> 100000,1370
CCN(c1cc(C(=O)Nc2ccc(CC(=O)O)cc2)cc2c1OCO2)S(=O)(=O)c1cc(Cl)ccc1OC,285,350,> 100000,37700,2800
COc1ccc(Cl)cc1S(=O)(=O)c1nn(C)c2ccc(C(=O)Nc3ccc(C(=O)O)c(Cl)c3)cc12,41.6,15.8,35100,21300,1680
O=C([C@H]1CCCCN1C(=O)COc1ccccc1)N1Cc2ccc(O[C@H]3CCOC3)cc2C1,118,35.7,1330,551,> 100000
O=C1CCC(=O)N1c1cc(F)cc(-c2noc([C@H]3CCCCN3C(=O)COc3ccccc3)n2)c1,75.7,386,> 100000,16200,> 100000
CCCN(c1cc(C(=O)Nc2ccn(CC(=O)O)n2)cc2c1OCO2)S(=O)(=O)c1cc(Cl)ccc1OC,324,252,> 100000,> 100000,1760
Nc1ccc(-c2n[nH]c([C@H]3CCCCN3C(=O)COc3ccccc3)n2)cn1,325,759,90700,80000,

# Reference: ChEMBL document CHEMBL3431459, “Roche carnitine palmitoyltransferase modulator screening data (supplementary data associated with the publication CHEMBL2216752)”
